Measured values: US20210145000A1, “WEED CONTROL FROM APPLICATIONS OF PYRIDINE CARBOXYLIC ACID HERBICIDES AND ACETYL CoA CARBOXYLASE (ACCase) INHIBITORS” (Dow AgroSciences LLC, priority 2018, published 2021)

Assays:
Test in all cases: Postemergence herbicidal activity, greenhouse, visual injury
Format in all cases: in vivo
[1] = test system: winter wheat (Triticum aestivum, TRZAW); settings: post-emergence, read-out: Effect (% visual injury) Obs
Protocol: (§1) The plants were grown for 7-36 days (d) in a greenhouse with an approximate 14-hour (h) photoperiod which was maintained at about 23° C. during the day and 22° C. during the night. Nutrients and water were added on a regular basis and supplemental lighting was provided with overhead metal halide 1000-Watt lamps as necessary. The plants were employed for testing when they reached the second or third true leaf stage.
(§2) Spray solutions of the experimental compound mixtures were prepared by adding the stock solutions to the appropriate amount of dilution solution to form a 12 mL spray solution in two-way combinations. […] Control plants were sprayed in the same manner with the solvent blank. Application rates for component (a) are in g ae/ha, and application rates for component (b) are in g ai/ha.
(§3) The treated plants and control plants were placed in a greenhouse as described above and watered by sub-irrigation to prevent wash-off of the test compounds. After 20-22 d, the condition of the test plants as compared with that of the control plants was determined visually and scored on a scale of 0 to 100 percent where 0 corresponds to no injury and 100 corresponds to complete kill. […] The Colby method was used to determine the herbicidal effects expected from the mixtures.

[2] = test system: soybean (Glycine max, GLXMA); settings: post-emergence, read-out: Effect (% visual injury) Obs
Protocol: as §1, §2, §3

[3] = test system: giant foxtail (Setaria faberi, SETFA); settings: post-emergence, read-out: Effect (% visual injury) Obs
Protocol: as §1, §2, §3

[4] = test system: large crabgrass (Digitaria sanguinalis, DIGSA); settings: post-emergence, read-out: Effect (% visual injury) Obs
Protocol: as §1, §2, §3

[5] = test system: wild pansy (Viola tricolor, VIOTR); settings: post-emergence, read-out: Effect (% visual injury) Obs
Protocol: as §1, §2, §3

[6] = test system: barnyardgrass (Echinochloa crus-galli, ECHCG); settings: post-emergence, read-out: Effect (% visual injury) Obs
Protocol: as §1, §2, §3

[7] = test system: blackgrass (Alopecurus myosuroides, ALOMY); settings: post-emergence, read-out: Effect (% visual injury) Obs
Protocol: as §1, §2, §3

[8] = test system: wild buckwheat (Polygonum convolvulus, POLCO); settings: Fallopia convolvulus, post-emergence, read-out: Effect (% visual injury) Obs
Protocol: as §1, §2, §3

[9] = test system: grain sorghum (Sorghum vulgare, SORVU); settings: post-emergence, read-out: Effect (% visual injury) Obs
Protocol: as §1, §2, §3

[10] = test system: rice (Oryza sativa, ORYSA); settings: post-emergence, read-out: Effect (% visual injury) Obs
Protocol: as §1, §2, §3

[11] = test system: velvetleaf (Abutilon theophrasti, ABUTH); settings: post-emergence, read-out: Effect (% visual injury) Obs
Protocol: as §1, §2, §3

[12] = test system: pigweed (Amaranthus retroflexus, AMARE); settings: post-emergence, read-out: Effect (% visual injury) Obs
Protocol: as §1, §2, §3

maize (Zea mays, ZEAMX) = settings: post-emergence, read-out: Effect (% visual injury) Obs
Protocol: as §1, §2, §3

[13] = test system: wild oat (Avena fatua, AVEFA); settings: post-emergence, read-out: Effect (% visual injury) Obs
Protocol: as §1, §2, §3

[14] = test system: sunflower (Helianthus annuus, HELAN); settings: post-emergence, read-out: Effect (% visual injury) Obs
Protocol: as §1, §2, §3

[15] = test system: common lambsquarters (Chenopodium album L., CHEAL); settings: post-emergence, read-out: Effect (% visual injury) Obs
Protocol: as §1, §2, §3

[16] = test system: chickweed (Stellaria media, STEME); settings: post-emergence, read-out: Effect (% visual injury) Obs
Protocol: (§4) Seeds of the desired test plant species were planted in Sun Gro MetroMix® 306 planting mixture, which typically has a pH of 6.0 to 6.8 and an organic matter content of about 30 percent, in plastic pots with a surface area of 103.2 square centimeters (cm^2). When required to ensure good germination and healthy plants, a fungicide treatment and/or other chemical or physical treatment was applied. The plants were grown for 7-36 days (d) in a greenhouse with an approximate 14-hour (h) photoperiod which was maintained at about 23° C. during the day and 22° C. during the night. Nutrients and water were added on a regular basis and supplemental lighting was provided with overhead metal halide 1000-Watt lamps as necessary. The plants were employed for testing when they reached the second or third true leaf stage.
(§5) An emulsifiable concentrate (EC) formulation containing Compound 1 at 100 gai/L was prepared by combining Compound 1 with 1-butyl-2-pyrrolidinone (Tamisolve NxG; 360.5 g/L), benzyl acetate (544.6 g/L) and Agnique MBL 520L surfactant (52.9 g/L). […] The concentrated stock solution was diluted with an aqueous mixture of 1.5% v/v of Agri-dex crop oil concentrate to provide the appropriate application rates. Compound requirements are based upon a 12 milliliter (mL) application volume at a rate of 187 liters per hectare (L/ha). Spray solutions of the experimental compound mixtures were prepared by adding the stock solutions to the appropriate amount of dilution solution to form a 12 mL spray solution in two-way combinations. Formulated compounds were applied to the plant material with an overhead Mandel track sprayer equipped with 8002E nozzles calibrated to deliver 187 L/ha over an application area of 0.503 square meters (m^2) at a spray height of 18 inches (43 centimeters (cm)) above average plant canopy. Control plants were sprayed in the same manner with the solvent blank. Application rates for component (a) are in g ae/ha, and application rates for component (b) are in g ai/ha.
as §3

[17] = test system: winter rape (Brassica napus, BRSNW); settings: post-emergence, read-out: Effect (% visual injury) Obs
Protocol: as §4, §5, §3

[18] = test system: poinsettia (Euphorbia heterophylla, EPHHL)
Protocol: as §4, §5, §3

[19] = test system: kochia (Kochia scoparia, KCHSC); settings: Clethodim 70 g ai/ha
Protocol: as §4, §5, §3

## CCOC(=O)[C@@H](C)Oc1ccc(Oc2cnc3cc(Cl)ccc3n2)cc1 [Quizalofop-P-ethyl]
[1]
  plant injury at 75 g/ha: 99%
[2]
  plant injury at 75 g/ha: 0%
[3]
  pest or weed control at 75 g/ha: 100%
[4]
  pest or weed control at 75 g/ha: 100%
[5]
  pest or weed control at 75 g/ha: 0%
[6]
  pest or weed control at 75 g/ha: 100%
[7]
  pest or weed control at 75 g/ha: 100%
[8]
  pest or weed control at 75 g/ha: 0%
[9]
  plant injury at 75 g/ha: 100%
[10]
  plant injury at 75 g/ha: 100%
[11]
  pest or weed control at 75 g/ha: 0%
[12]
  pest or weed control at 75 g/ha: 0%
Maize (Zea mays, ZEAMX)
  plant injury at 75 g/ha: 100%
[13]
  pest or weed control at 75 g/ha: 98%
[14]
  plant injury at 75 g/ha: 0%
[15]
  pest or weed control at 75 g/ha: 0%

## CCc1cc(C)cc(CC)c1-c1c(OC(=O)C(C)(C)C)n2n(c1=O)CCOCC2 [Pinoxaden]
[1]; Pinoxaden 30 g ai/ha
  plant injury: 0%
[2]; Pinoxaden 30 g ai/ha
  plant injury: 0%
[3]; Pinoxaden 30 g ai/ha
  pest or weed control: 0%
[4]; Pinoxaden 30 g ai/ha
  pest or weed control: 10%
[5]; Pinoxaden 30 g ai/ha
  pest or weed control: 0%
[6]; Pinoxaden 30 g ai/ha
  pest or weed control: 100%
[8]; Pinoxaden 30 g ai/ha
  pest or weed control: 0%
[9]; Pinoxaden 30 g ai/ha
  plant injury: 100%
[10]; Pinoxaden 30 g ai/ha
  plant injury: 99%
[11]; Pinoxaden 30 g ai/ha
  pest or weed control: 0%
[12]; Pinoxaden 30 g ai/ha
  pest or weed control: 0%
Maize (Zea mays, ZEAMX); Pinoxaden 30 g ai/ha
  plant injury: 10%
[13]; Pinoxaden 30 g ai/ha
  pest or weed control: 95%
[14]; Pinoxaden 30 g ai/ha
  plant injury: 0%
[15]; Pinoxaden 30 g ai/ha
  pest or weed control: 0%
[16]; Pinoxaden 30 g ai/ha
  pest or weed control at 30 g/ha: 0%

## CCOC(=O)[C@@H](C)Oc1ccc(Oc2nc3ccc(Cl)cc3o2)cc1 [Fenoxaprop-P-ethyl]
[1]; Fenoxaprop-P-ethyl 46 g ai/ha
  plant injury at 46 g/ha: 0%
[3]; Fenoxaprop-P-ethyl 46 g ai/ha
  pest or weed control at 46 g/ha: 100%
[4]; Fenoxaprop-P-ethyl 46 g ai/ha
  pest or weed control at 46 g/ha: 100%
[5]; Fenoxaprop-P-ethyl 46 g ai/ha
  pest or weed control at 46 g/ha: 0%
[6]; Fenoxaprop-P-ethyl 46 g ai/ha
  pest or weed control at 46 g/ha: 100%
[7]; Fenoxaprop-P-ethyl 46 g ai/ha
  pest or weed control at 46 g/ha: 0%
[8]; Fenoxaprop-P-ethyl 46 g ai/ha
  pest or weed control at 46 g/ha: 0%
[11]; Fenoxaprop-P-ethyl 46 g ai/ha
  pest or weed control at 46 g/ha: 0%
Maize (Zea mays, ZEAMX); Fenoxaprop-P-ethyl 46 g ai/ha
  plant injury at 46 g/ha: 100%
[13]; Fenoxaprop-P-ethyl 46 g ai/ha
  pest or weed control at 46 g/ha: 95%
[14]; Fenoxaprop-P-ethyl 46 g ai/ha
  plant injury at 46 g/ha: 0%
[15]; Fenoxaprop-P-ethyl 46 g ai/ha
  pest or weed control at 46 g/ha: 0%
[17]; Fenoxaprop-P-ethyl 46 g ai/ha
  plant injury at 46 g/ha: 0%

## COC(=O)[C@@H](C)Oc1ccc(Oc2ncc(C(F)(F)F)cc2Cl)cc1 [Haloxyfop-P-methyl]
[1]
  plant injury at 70 g/ha: 100%
[2]
  plant injury at 70 g/ha: 0%
[4]
  pest or weed control at 70 g/ha: 100%
[5]
  pest or weed control at 70 g/ha: 0%
[6]
  pest or weed control at 70 g/ha: 100%
[7]
  pest or weed control at 70 g/ha: 97%
[8]
  pest or weed control at 70 g/ha: 0%
[9]
  plant injury at 70 g/ha: 100%
[10]
  plant injury at 70 g/ha: 100%
[11]
  pest or weed control at 70 g/ha: 0%
[12]
  pest or weed control at 70 g/ha: 0%
Maize (Zea mays, ZEAMX)
  plant injury at 70 g/ha: 100%
[14]
  plant injury at 70 g/ha: 0%
[15]
  pest or weed control at 70 g/ha: 0%
[18]; Haloxyfop-P-methyl 70 g ai/ha
  Effect (% visual injury) Obs: 0%
[16]
  pest or weed control at 70 g/ha: 0%
[17]
  plant injury at 70 g/ha: 0%

## CCSC(C)CC1CC(=O)C(C(CC)=NOC/C=C/Cl)=C(O)C1 (stereo not drawn) [Clethodim]
[1]
  plant injury at 70 g/ha: 70%
[2]
  plant injury at 70 g/ha: 10%
[3]
  pest or weed control at 70 g/ha: 85%
[4]
  pest or weed control at 70 g/ha: 70%
[5]
  pest or weed control at 70 g/ha: 5%
[6]
  pest or weed control at 70 g/ha: 100%
[7]
  pest or weed control at 70 g/ha: 93%
[8]
  pest or weed control at 70 g/ha: 10%
[10]
  plant injury at 70 g/ha: 90%
[11]
  pest or weed control at 70 g/ha: 0%
[12]
  pest or weed control at 70 g/ha: 5%
Maize (Zea mays, ZEAMX)
  plant injury at 70 g/ha: 100%
[13]
  pest or weed control at 70 g/ha: 97%
[14]
  plant injury at 70 g/ha: 0%
[15]
  pest or weed control at 70 g/ha: 5%
[19]
  Effect (% visual injury) Obs: 0%
[18]; Clethodim 70 g ai/ha
  Effect (% visual injury) Obs: 30%
[16]
  pest or weed control at 70 g/ha: 10%
[17]
  plant injury at 70 g/ha: 5%
